The text below walks through data of patent US6617360B1, “Medical treatment” (Knoll Aktiengesellschaft, priority 1996, dated 2003).

In one assay the test system is L6 muscle cells. As to the kind of experiment: [3H]-2-deoxyglucose (2DG) uptake in L6 muscle cells with and without added insulin (Study 1). Type of assay: cell-based. As to the method:
L6 Muscle cells were obtained from the European Culture Collection (Porton Down) and were used at passages 7-11. Cells were maintained in standard tissue culture medium DMEM, and glucose uptake was assessed using [^3H]-2-deoxyglucose (2DG) with and without the presence of added insulin (10^−8 M) as has been previously described (Walker P S et al, Glucose transport activity in L6 muscle cells is regulated by the coordinate control of subcellular glucose transporter distribution, biosynthesis, and mRNA transcription, JBC, 1990;265(3), 1516-1523, and Kilp A et al, Stimulation of hexose transport by metformin in L6 muscle cells in culture, Endocrinology, 1992;130(5), 2535-2544).
Uptake of 2DG was expressed as the percentage change compared with control. Values are presented as mean±SEM of sets of 4 wells per experiment. Differences between sets of wells were evaluated by Student's t test, probability values p<0.05 were considered to be significant. […] In the presence of added insulin (10^−8 M), significant increases in 2DG uptake were observed following 24 hour incubation with the compound of formula I in which R1 and R2 are both methyl (sibutramine hydrochloride monohydrate) at 10^−8 M (from 149.9±4.3 to165.3±2.6), the compound of formula I in which R1 is methyl and R2 is H at 10^−7 M (from 147.3±3.0 to 160.7±4.5), and the compound of formula I in which R1 and R2 are both H, at 10^−7 M and 10^−6 M (from 149.1±3.9 to 161.8±3.3 and 165.2±3.6 respectively).

Assay [1] deals with ob/ob mice (Aston Strain). Nature of the assay: Chronic administration (10 mg/kg po) and withdrawal in obese ob/ob mice: plasma glucose, plasma insulin, body weight, food intake (Study 2). Type of assay: in vivo. The method, then: Studies were performed in obese ob/ob mice (Aston Strain) which are a model of severe insulin resistance and are also hyperglycaemic. The derivation and characteristics of this animal model have been previously described (Flatt P R, Bailey C J, Development of glucose intolerance and impaired plasma insulin response to glucose in obese hyperglycaemic (ob/ob) mice, Horm Metab Res 1981;13:556-560, and Bailey C J et al, Influence of genetic background and age on the expression of the obese hyperglycaemic syndrome in Aston ob/ob mice, Int J Obesity, 1982;6:11-21).
The ob/ob mice were individually housed in polypropylene cages at a temperature of 21±1° C. and 55% humidity. The mice had free access to a standard rat and mouse pelleted diet (Compound Rat and Mouse Diet, Special Diet Services, Witham, Essex) and tap water at all times. Animals were maintained on a reverse phase light-dark cycle. Lights were off between 09.00 h and 17.00 h in the acute experiment and between 10.00 h and 18.00 h in the chronic experiment. During this time the laboratory was illuminated by red lamps. Animals were acclimatised to these conditions for at least two weeks before experimentation.
All animals were given deionised water (at the start of the dark period) for 7 days. Body weight and food intake were measured daily. Blood samples were taken immediately before daily administration of vehicle (deionised water 10 ml/kg po) or compound of formula I in which R1 and R2 are both methyl (sibutramine hydrochloride monohydrate; 10 mg/kg po) on day 1 (baseline) and after 14 and 28 days of treatment (on day 15 and day 29 respectively). Blood samples were also taken 14 days following withdrawal of the sibutramine hydrochloride monohydrate (on day 43 of the study). Plasma glucose was determined by a glucose oxidase procedure (Analox GM7) and plasma insulin determined by radioimmunoassay (Amerlex, Amersham).

Assay [2] has as its system ob/ob mice (Aston Strain). As to the kind of experiment: 6 weeks of treatment (5 mg/kg/day po) and 6 weeks of withdrawal in young ob/ob mice: body weight, plasma insulin, ip glucose tolerance test, insulin hypoglycaemia test (Study 3). In kind it is in vivo. As to the method:
Young ob/ob mice (Aston Strain) were randomised into 3 groups as follows: control, receiving placebo treatment (phosphate buffered saline 2.5 ml/kg/day po); sibutramine hydrochloride monohydrate-treated (5 mg/kg/day po); and pair-fed control, supplied with the same daily food intake as that consumed by the sibutramine hydrochloride monohydrate-treated group on the previous day. There was a 1 week run-in period followed by 6 weeks of treatment. Body weight and food intake were monitored every 1 to 2 days, and blood samples for plasma glucose and insulin were taken from the tail vein at weekly intervals in the non-fasted state at 11 a.m. An ip glucose tolerance test (D-glucose, 2 g/kg in 40% w/v solution in distilled water) and an insulin hypoglycaemia test (Actrapid, Novo-Nordisk, 2.5 u/kg ip) were conducted after 5 weeks of treatment. Food was withheld only for the duration of these tests (approx. 4 hours). The basal blood samples and the test procedures were undertaken 18 hours after the last treatment administration.
Treatment was stopped after 6 weeks, and the mice were monitored for the next 6 weeks. The pair-fed mice continued to be pair-fed with respect to the sibutramine hydrochloride monohydrate withdrawal group. A second insulin hypoglycaemia test was conducted 4 weeks after treatment was stopped. Plasma glucose was determined by an automated glucose oxidase procedure (Beckman) and plasma insulin determined by radioimmunnoassay (Amerlex, Amersham).

Setting [3] is: compound group, day 1 of study, prior to treatment (baseline), mean ± SEM.
[4] abbreviates: 6 week withdrawal period after 5 mg/kg/day po, vs vehicle treated group, for almost all of the period.
Where [5] appears, read: added insulin 10^−8 M, 24 hour incubation, compound 10^−7 M, insulin alone 147.3±3.0 (R1 methyl, R2 H) or 149.1±3.9 (both H), mean±SEM.

On to `CC(C)CC(N(C)C)C1(c2ccc(Cl)cc2)CCC1.Cl.O` (stereo not drawn) [sibutramine hydrochloride monohydrate, N,N-dimethyl-1-[1-(4-chlorophenyl)cyclobutyl]-3-methylbutylamine hydrochloride monohydrate], for which the “Uptake of 2DG, percentage change compared with control” value (shortened to “Uptake of 2DG, percentage change”) with L6 muscle cells (added insulin 10^−8 M, 24 hour incubation, compound 10^−8 M, insulin alone 149.9±4.3, mean±SEM) is 165.3±2.6%. Moreover, the “Plasma glucose (in words)” value is “fell” in assay [1] (10 mg/kg po daily, after 14 and 28 days of treatment, significant difference from control at day 28 (P<0.01)); “rose significantly” in assay [1] (after 14 days of drug withdrawal, rose to control values). Moreover, the Plasma glucose in assay [1] (10 mg/kg po daily, day 15 of study (14 days of treatment), vehicle 21.7 ± 0.9, mean ± SEM) is 19.0 ± 0.6 mmol/L; in assay [1] (10 mg/kg po daily, day 29 of study (28 days of treatment), vehicle 26.0 ± 1.4, **P < 0.01 vs vehicle, mean ± SEM), 15.8 ± 0.7** mmol/l; in assay [1] (setting [3]) it was 24.3 ± 0.6 mmol/L; in assay [1] (day 43 of study, 14 days after drug withdrawal, vehicle 22.9 ± 1.7, mean ± SEM), 23.6 ± 1.2 mmol/L. For the same molecule, the Plasma insulin in assay [1] (10 mg/kg po daily, day 15 of study (14 days of treatment), vehicle 49.7 ± 3.5, mean ± SEM) was 45.1 ± 2.6 ng/mL; in assay [1] (10 mg/kg po daily, day 29 of study (28 days of treatment), vehicle 46.2 ± 4.5, mean ± SEM), 35.1 ± 2.7 ng/mL; in assay [1] (setting [3]), 92.0 ± 4.5 ng/mL; in assay [1] (day 43 of study, 14 days after drug withdrawal, vehicle 40.6 ± 8.6, mean ± SEM), 77.1 ± 11.3 ng/mL. Further, the “Plasma insulin (in words)” value in assay [1] (10 mg/kg po daily, tended to fall on treatment and increased on withdrawal) is “No significant changes”; in assay [2] (5 mg/kg/day po, during 6 weeks of treatment, non-fasted, compared to vehicle), “significant reduction”; in assay [2] (setting [4]), “remained significantly lower”. Also, the “Body weight (in words)” value in assay [1] (10 mg/kg po daily, vs vehicle) is recorded as “No significant changes”; in assay [2] (5 mg/kg/day po, during 6 weeks of treatment, compared to vehicle), “significant reduction”; in assay [2] (setting [4]), “remained significantly lower”. For the same molecule, the “Food intake (in words)” value in assay [1] (10 mg/kg po daily, vs vehicle) is “No significant changes”. In assay [2] (5 mg/kg/day po, after 5 weeks of treatment, D-glucose 2 g/kg ip, vs vehicle, P<0.05, FIG. 1), the “Plasma insulin in ip glucose tolerance test (in words)” value is “significant reductions”. The “Plasma glucose in ip glucose tolerance test (in words)” value in assay [2] (5 mg/kg/day po, after 5 weeks of treatment, D-glucose 2 g/kg ip, vs vehicle, P<0.05, FIG. 2) was “significant reductions”. For the same molecule, the “Insulin hypoglycaemia test (in words)” value in assay [2] (5 mg/kg/day po, at 5 weeks, insulin 2.5 u/kg ip, vs vehicle, P<0.05, FIG. 3) is “Significant improvements”.

Turning to `CNC(CC(C)C)C1(c2ccc(Cl)cc2)CCC1` (stereo not drawn) [N-{1-[1-(4-chlorophenyl)cyclobutyl]-3-methylbutyl}-N-methylamine], the “Uptake of 2DG, percentage change” value in the assay on L6 muscle cells (setting [5]) came to 160.7±4.5%.

`CC(C)CC(N)C1(c2ccc(Cl)cc2)CCC1` (stereo not drawn) [1-[1-(4-chlorophenyl)cyclobutyl]-3-methylbutylamine]: the “Uptake of 2DG, percentage change” value in the assay with L6 muscle cells (absence of added insulin, 24 hours incubation, compound 10^−6 M, control 100±2.1, mean±SEM) was found to be 134±7.3%; in the assay on L6 muscle cells (absence of added insulin, 24 hours incubation, compound 10^−7 M, control 100±2.1, mean±SEM) it was 123.9±4.3%; in the assay with L6 muscle cells (absence of added insulin, 24 hours incubation, compound 10^−8 M, control 100±2.1, mean±SEM) it was 116.9±3.8%; with L6 muscle cells (added insulin 10^−8 M, 24 hour incubation, compound 10^−6 M, insulin alone 149.1±3.9, mean±SEM) it was 165.2±3.6%; in the assay on L6 muscle cells (setting [5]), 161.8±3.3%.
